This is an account of results in PubChem BioAssay (NCI).

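In this assay, cells in 96-well plates receive the compound at five concentrations for 48 hours. Endpoints are linearly interpolated between the surrounding concentrations. TGI: concentration producing complete growth inhibition.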

Holding throughout (test): growth of human tumour cells (NCI), 48 h
For test [1], the system named is RPMI-8226 leukemia.
Test [2] relates to MOLT-4 leukemia.
In test [3] the test system is BT-549 breast.
Test [4] relates to NCI/ADR-RES ovarian.
The test system of test [5] is NCI-H460 lung.
Test [6] has as its system SNB-19 CNS.
Test [7] concerns HOP-92 NSCLC.
Test [8] has as its system DU-145 prostate.
The subject of test [9] is SF-295 CNS.
Test [10] has as its system HL-60(TB) leukemia.
Test [11] deals with SNB-75 CNS.
Test [12] relates to A549 NSCLC.
The subject of test [13] is MDA-N.
Test [14] has as its system HOP-62 NSCLC.
Test [15] relates to OVCAR-3 ovarian.
Test [16] has as its system SN12C renal.
Test [17] relates to HT29 colon.
The test system of test [18] is UO-31 renal.
The subject of test [19] is CCRF-CEM leukemia.
Test [20] concerns SR leukemia.

`CC1CCC2(O)C3(C)CC4(O)OC2(C1O)C1(O)C3(O)C(OC(=O)c2ccc[nH]2)C(O)(C(C)C)C41C` (centres undefined): the TGI in test [1], in test [2], in [3], in test [4], in test [5] and in [6] was above 100 µM in each case. The TGI in [7], in test [8], in test [9], in test [10], in [11] and in [12] was above 100 µM each time. The TGI in [13], in test [14], in test [15], in test [16], in test [17] and in test [18] was above 100 µM each time. The compound further returned a TGI in [19] above 100 µM.

On to `O=C1N=C(SC(SC2=NC(=O)C3(NN2)c2ccccc2-c2ccccc23)=C(SC2=NC(=O)C3(NN2)c2ccccc2-c2ccccc23)SC2=NC(=O)C3(NN2)c2ccccc2-c2ccccc23)NNC12c1ccccc1-c1ccccc12`, for which the TGI in test [1] was above 10 µM; in [2], 2.95 µM; in test [3], above 10 µM; in test [4], above 10 µM; in test [5], above 10 µM; in test [6], above 10 µM. Besides, the TGI in [7], in test [8], in [9], in test [11], in test [20] and in test [12] was above 10 µM throughout. In addition, the TGI in [13], in [14], in test [16], in [17], in test [18] and in test [19] was above 10 µM each time.

Take `O=C1Nc2ccccc2C1=Nc1cccc2ncccc12`: the TGI in [1], in [2], in test [3], in [4], in test [5] and in test [6] was above 100 µM throughout. For the same compound, the TGI in test [7], in test [8], in test [9], in [11], in [20] and in [12] was above 100 µM throughout. The TGI in test [13], in test [14], in [15], in test [16], in [17] and in test [18] was above 100 µM throughout.

On to `COc1ccc(/C=C2\NC(=S)N(/C=C3\C(=O)Oc4ccccc4C3=O)C2=O)cc1OC`, for which the TGI in test [1], in [2], in test [3], in [4], in [5] and in test [6] was above 100 µM throughout. Moreover, the TGI in [7], in [8], in test [9], in test [10], in test [11] and in test [12] was above 100 µM each time. In addition, the TGI in [13], in test [14], in [15], in [16], in test [17] and in [18] was above 100 µM throughout. In test [19], this compound displayed a TGI above 100 µM.

`CN1CCN(C(=S)N(C(=O)c2ccc(Cl)cc2)c2ccccc2)CC1`: the TGI in test [1], in test [2], in test [3], in test [5], in test [6] and in [7] was above 100 µM each time. Also, the TGI in test [8], in test [9], in [10], in [11], in test [20] and in test [12] was above 100 µM throughout. Further, the TGI in test [13], in [15], in test [16], in test [17] and in test [18] was above 100 µM in each case.

Turning to `CC1OC(OC2C(O)COC(OC3C(C)OC(OC4C(OC(=O)[C@]56CCC(C)(C)C[C@@H]5C5=CCC7[C@@]8(C)C[C@H](O)[C@H](OC9OC(CO)C(O)C(OC%10OC(CO)C(O)C(O)C%10O)C9O)[C@@](C)(CO)[C@@H]8CC[C@@]7(C)[C@]5(C)CC6)OCC(O)C4O)C(O)C3OC3OCC(O)(CO)C3O)C2O)C(O)C(O)C1O` (some centres undefined), the TGI in test [1] stood at 50 µM; in [2], 30.1 µM; in test [3] it was 13.3 µM; in test [4], 16.7 µM; in test [5], 36.2 µM; in [6], 16.6 µM. Further, the TGI in [7] worked out at 19.7 µM; in test [8], 16.2 µM; in test [9], 18.6 µM; in [11], 21.3 µM; in test [20] it was 16 µM; in test [12], 13.9 µM. In addition, the TGI amounted to 19.2 µM in test [13]; 20.7 µM in test [14]; 19.1 µM in test [15]; 12 µM in [16]; 10.3 µM in test [18]; 15.4 µM in test [19].

For `Cc1ccc(S(=O)(=O)N2CCC(=O)c3cc(Br)ccc32)cc1`, the TGI in test [1] is 76.4 µM; in test [2], above 26.6 µM; in [3] it was above 88.9 µM; in [4], 58.9 µM; in test [5], above 55.4 µM; in test [6], 99.4 µM. For the same compound, the TGI in test [7] is 98.9 µM; in test [8], above 100 µM; in [9], 55.7 µM; in test [11], 59.6 µM; in test [20] it was above 100 µM; in test [12], 32.1 µM. In addition, the TGI is 13.3 µM in test [13]; 59.7 µM in test [14]; 61 µM in test [15]; above 100 µM in [16]; above 100 µM in test [17]; above 100 µM in [18].

`CCc1cccc(C(C)(C)C)c1NC(=S)N/C=C(/C#N)C(N)=O`: the TGI in test [1], in test [2], in test [3], in [4], in [5] and in test [6] was above 100 µM in each case. Further, the TGI in [7] was 72 µM; in test [8], above 100 µM; in test [9], above 100 µM; in test [10] it was above 100 µM; in test [11] it was above 100 µM; in test [12], above 100 µM. The TGI in test [13], in test [14], in test [15], in test [16], in [17] and in test [18] was above 100 µM each time. The compound further gave a TGI in [19] above 100 µM.

Turning to `O=[N+]([O-])C(=C(Nc1ccccc1)Nc1ccccc1)/C(Cl)=C(\Cl)[N+](=O)[O-]`, the TGI amounted to 19.2 µM in [1]; 17.7 µM in [2]; 13.7 µM in test [3]; 38.5 µM in test [4]; 53.7 µM in test [5]; 26.8 µM in test [6]. In addition, the TGI in test [8] was 8.92 µM; in test [9], 26.1 µM; in test [11], 22.4 µM; in test [20] it was above 100 µM; in test [12], 35.6 µM; in [13], 10.5 µM. The TGI in test [14] is 26.4 µM; in test [15] it was 12 µM; in test [16] it was 7.77 µM; in test [17] it was 8.73 µM; in test [18], 8.21 µM; in test [19], 92.5 µM.

As to `C[C@]12CC[C@@H]3c4ccc(O)cc4CC[C@H]3[C@@H]1CC[C@@H]2OP(=O)(O)O`, the TGI in [1], in [2], in test [3], in test [4], in test [5] and in test [6] was above 100 µM throughout. For the same compound, the TGI in test [7], in [8], in test [9], in [10], in test [11] and in [12] was above 100 µM throughout. Besides, the TGI in [13], in test [14], in [15], in [16], in test [17] and in [18] was above 100 µM in each case. Moreover, in test [19], the TGI is above 100 µM.

Take `COc1cc(C(=O)/C=C/c2ccc(OCC#N)cc2)cc(OC)c1OC`: the TGI in [2] came to 90.7 µM; in test [3], 32 µM; in test [4], 48.3 µM; in test [5], 80.9 µM; in [6], 54.4 µM; in [7] it was 35.9 µM. Further, the TGI in [8] was 79.8 µM; in test [9], above 100 µM; in test [20] it was 55.4 µM; in test [12] it was 50.9 µM; in test [13], above 100 µM; in test [14], 58.6 µM. The TGI is 59.5 µM in test [15]; 36.3 µM in [16]; above 100 µM in [17]; 31.4 µM in test [18]; 65.1 µM in test [19].

In the case of `COc1ccc([C@H]2CC(=O)C[C@H](c3ccc(OC)cc3)C23C(=O)c2ccccc2C3=O)cc1`, the TGI in test [1] is above 100 µM; in [2] it was above 100 µM; in [3], above 100 µM; in [4] it was 7.69 µM; in [5] it was above 100 µM; in [6], above 100 µM. Moreover, the TGI in test [7] is above 100 µM; in test [8], above 100 µM; in [9] it was above 100 µM; in [11], 8.63 µM; in test [20], 42.2 µM; in [12], above 100 µM. For the same compound, the TGI in [13] was 5.35 µM; in [14], above 100 µM; in test [16], above 100 µM; in test [17], above 100 µM; in test [18], above 100 µM; in test [19], above 100 µM.

With `N=C(N)C1CN(CCCCCCCCCCN2CC(C(=N)N)C(=O)NC2=O)C(=O)NC1=O` (centres undefined), the TGI in [1], in [2], in test [3], in [4], in test [5] and in test [6] was above 10 µM each time. Moreover, the TGI in test [7], in test [9], in [10], in test [11], in test [20] and in test [12] was above 10 µM in each case. In addition, the TGI in test [13], in test [14], in test [15], in test [16], in test [17] and in [19] was above 10 µM in each case.

As for `CCN(C(=O)N[C@@H](Cc1ccccc1)C(=O)N[C@@H](CC(C)C)C(=O)OC)c1ccccc1`, the TGI in test [1] is 56.9 µM; in test [2] it was 44.2 µM; in test [3], above 100 µM; in [4] it was above 100 µM; in test [5] it was 24.9 µM; in [6], above 100 µM. The TGI in test [7] was 59.5 µM; in test [8], 31.7 µM; in test [9], 84.3 µM; in test [20], 23.9 µM; in [12] it was above 100 µM; in test [13], above 100 µM. Moreover, the TGI in [14] was 70.6 µM; in [15], 72 µM; in test [16], 43.8 µM; in [17] it was 27.3 µM; in [18], 33.3 µM; in test [19], above 100 µM.
